This data set in a line: Vapor pressure at 25° C. by the Donovan method (gas chromatography). The data set is classed as physicochemical. On the procedure: The pyrethroid compound volatile at ambient temperature used in the present invention (hereinafter referred to as “the present active ingredient”) is a pyrethroid compound with a vapor pressure of about 6×10^−6 to about 1×10^−4 mm Hg at 25° C. when measured, for instance, by the method reported by Stephen F. Donovan (New method for estimating vapor pressure by use of gas chromatography, Journal of Chromatography A. 749(1996) 123-129, hereinafter referred to as “Donovan method”) and an ester compound represented by formula (I)
Specific examples of the present active ingredient are 2,3,5,6-tetrafluoro-4-methylbenzyl 3-(1-propenyl)-2,2-dimethylcyclopropanecarboxylate (7.7×10^−5 mm Hg), 2,3,5,6-tetrafluoro-4-methylbenzyl 3-(2-methyl-1-propenyl)-2,2-dimethylcyclopropanecarboxylate(3.1×10^−5 mm Hg), 2,3,5,6-tetrafluorobenzyl 3-(2,2-dichlorovinyl)-2,2-dimethylcyclopropanecarboxylate (2.6×10^−5 mm Hg), 2,3,5,6-tetrafluoro-4-methoxymethylbenzyl 3-(1-propenyl)-2,2-dimethylcyclopropanecarboxylate(1.4×10^-5 mm Hg), and 2,3,5,6-tetrafluoro-4-methoxymethylbenzyl 3-(2-methyl-1-propenyl)-2,2-dimethylcyclopropanecarboxylate(6.8×10^−6 mm Hg).

Consider `CC(C)=CC1C(C(=O)OCc2c(F)c(F)c(C)c(F)c2F)C1(C)C` (centres unmarked) [2,3,5,6-tetrafluoro-4-methylbenzyl 3-(2-methyl-1-propenyl)-2,2-dimethylcyclopropanecarboxylate], for which the vapor pressure is reported as 3.1×10^−5 mm Hg.

Regarding `CC1(C)C(C=C(Cl)Cl)C1C(=O)OCc1c(F)c(F)cc(F)c1F` (centres unmarked) [2,3,5,6-tetrafluorobenzyl 3-(2,2-dichlorovinyl)-2,2-dimethylcyclopropanecarboxylate], the vapor pressure was 2.6×10^−5 mm Hg. As for `CC=CC1C(C(=O)OCc2c(F)c(F)c(C)c(F)c2F)C1(C)C` (centres unmarked) [2,3,5,6-tetrafluoro-4-methylbenzyl 3-(1-propenyl)-2,2-dimethylcyclopropanecarboxylate], the vapor pressure is 7.7×10^−5 mm Hg.

For `COCc1c(F)c(F)c(COC(=O)C2C(C=C(C)C)C2(C)C)c(F)c1F` (centres unmarked) [2,3,5,6-tetrafluoro-4-methoxymethylbenzyl 3-(2-methyl-1-propenyl)-2,2-dimethylcyclopropanecarboxylate], the vapor pressure was 6.8×10^−6 mm Hg. With `CC=CC1C(C(=O)OCc2c(F)c(F)c(COC)c(F)c2F)C1(C)C` (centres unmarked) [2,3,5,6-tetrafluoro-4-methoxymethylbenzyl 3-(1-propenyl)-2,2-dimethylcyclopropanecarboxylate], the vapor pressure was 1.4×10^-5 mm Hg.
